Measured values as given in PMC3806476, “Natural and Semisynthetic Analogues of Manadoperoxide B Reveal New Structural Requirements for Trypanocidal Activity” (Marine Drugs, 2013).
Values after ≈ are worked out from the molar mass of the structure shown. Values joined by “and” are separate entries in the source; they are usually repeats but may differ in a detail not shown here. Equal entries are not always repeated. Where two headings read alike, the source gives them in different places.

Assays:
[1] = system: bloodstream forms of Trypanosoma brucei rhodesiense STIB 900 strain; design: method as in PMID 22859016; conditions: cited from earlier work
[2] = Cytotoxicity against L6 cells (resazurin, 72 h); assay type: cell-based, rat
Protocol: Assays were performed in 96-well microtiter plates, each well containing 100 μL of RPMI 1640 medium supplemented with 1% L-glutamine (200 mM) and 10% fetal bovine serum, and 4 × 10^4 L-6 cells. Serial drug dilutions of eleven 3-fold dilution steps covering a range from 100 to 0.002 μg/mL were prepared. After 72 h of incubation the plates were inspected under an inverted microscope to assure growth of the controls and sterile conditions. 10 μL of a resazurin solution (prepared dissolving 12.5 mg resazurin in 100 mL double distilled water) was then added to each well and the plates incubated for another 2 h. The plates were read with a Spectramax Gemini XS microplate fluorometer using an excitation wavelength of 536 nm and an emission wavelength of 588 nm. The IC50 values were calculated by linear regression from the sigmoidal dose inhibition curves using SoftmaxPro software (Molecular Devices Cooperation, Sunnyvale, CA, USA). The reported IC50 values are the means of at least two separate experiments. Podophyllotoxin was used as control drug.

[3] = system: bloodstream forms of Trypanosoma brucei rhodesiense STIB 900 strain; test: Activity against Trypanosoma brucei rhodesiense (resazurin, 72 h); assay type: cell-based; conditions: for IC50: Trypanosoma brucei
Protocol: Minimum Essential Medium (50 µL) supplemented with 25 mM HEPES, 1 g/L additional glucose, 1% MEM non-essential amino acids (100×), 0.2 mM 2-mercaptoethanol, 1mM Na-pyruvate and 15% heat inactivated horse serum was added to each well of a 96-well microtiter plate. Serial drug dilutions of eleven 3-fold dilution steps covering a range from 100 to 0.002 μg/mL were prepared. Then 4 × 10^4 bloodstream forms of STIB 900 strain (the stock was isolated in 1982 from a human patient in Tanzania and after several mouse passages was cloned and adapted to axenic culture conditions) of T. b. rhodesiense in 50 μL was added to each well and the plate incubated at 37 °C under a 5% CO2 atmosphere for 72 h. 10 µL of a resazurin solution (prepared dissolving 12.5 mg resazurin in 100 mL double distilled water) was then added to each well and incubation continued for a further 2–4 h. Then the plates were read in a Spectramax Gemini XS microplate fluorometer (Molecular Devices Cooperation, Sunnyvale, CA, USA) using an excitation wavelength of 536 nm and an emission wavelength of 588 nm. The IC50 values were calculated by linear regression from the sigmoidal dose inhibition curves using SoftmaxPro software (Molecular Devices Cooperation, Sunnyvale, CA, USA). Melarsoprol was the standard drug.

[4] = system: bloodstream forms of Trypanosoma brucei rhodesiense STIB 900 strain; test: as above; assay type: cell-based; conditions: at the highest test concentrations (20 μg/mL)
[5] = in vitro, read-out: IC50 against T. b. rhodesiense
[6] = in vitro, bloodstream forms, mean of at least two replicates, read-out: IC50 T. b. rhodesiense
[7] = in vitro, bloodstream forms, mean of at least two replicates, read-out: IC50 T. b. rhodesiense (in parentheses)
[8] = rat skeletal myoblasts, mean of at least two replicates, read-out: IC50 Cytotoxicity L6 cells
[9] = rat skeletal myoblasts, mean of at least two replicates, read-out: IC50 Cytotoxicity L6 cells (in parentheses)

manadoperoxide K
IC50 against T. b. rhodesiense ([1]; in vitro): 0.087 µg/mL | IC50 [1, 5]: 240 nM

CC/C=C(C)/C=C/CCC[C@]1(OC)C[C@H](C)[C@H](CC(=O)O)OO1 [Manadoperoxidic acid B (3), manadoperoxidic acid B]
IC50 at 72 h ([2]; rat): 7.12 µg/mL and 21.8 µM | IC50 [3, 6]: 1.87 µg/mL | IC50 [3, 7]: 5740 nM

Nc1nc(N)nc(Nc2ccc([As]3SCC(CO)S3)cc2)n1 (stereo not drawn) [Melarsoprol, reference compound]
IC50 at 72 h [2, 8]: 7.3 µg/mL | IC50 at 72 h [2, 9]: 18200 nM | IC50 ([3]; read-out: IC50 T. b. rhodesiense): 0.002 µg/mL | IC50 ([3]; read-out: IC50 T. b. rhodesiense (in parentheses)): 5 nM

COC(=O)C[C@@H]1OO[C@@](CCCC=O)(OC)C[C@@H]1C [Aldehyde 7]
IC50 at 72 h ([2]; rat): 7.55 µg/mL and 27.6 µM | IC50 [3, 6]: 1.21 µg/mL | IC50 [3, 7]: 4420 nM

CC/C=C(C)\C=C\CCC[C@]1(OC)C[C@H](C)[C@H](CC(=O)OC)OO1 [12-Isomanadoperoxide B (2), 12-isomanadoperoxide B]
IC50 at 72 h ([2]; rat): 3.8 µg/mL and 11.2 µM | selectivity index (SI) ([3]; IC50 against L6 cells divided by IC50 against the parasite): 345 | IC50 [3, 6]: 0.011 µg/mL | IC50 [3, 7]: 32 nM | trypanocidal activity relative to manadoperoxide B (1) ([3]; comparison of IC50 values against T. b. rhodesiense): four-fold reduction

CC[C@H]1OO[C@@H](CCC[C@]2(OC)C[C@H](C)[C@H](CC(=O)OC)OO2)C=C1C [Compound 8]
IC50 at 72 h ([2]; rat): 12.6 µg/mL and 33.8 µM | IC50 [3, 6]: 0.16 µg/mL | IC50 [3, 7]: 430 nM

CC/C=C(C)/C=C/CCC[C@]1(OC)C[C@H](C)[C@H](CC(=O)OC)OO1 [Manadoperoxide B (1), manadoperoxide B]
IC50 T. b. rhodesiense ([1]; in vitro): 0.003 µg/mL (≈ 8.81 nM) | IC50 ([1]; in vitro, read-out: IC50 T. b. rhodesiense (in parentheses)): 8.8 nM

peroxyplakoric ester B3
activity against T. b. rhodesiense (in words) ([1]; methyl linked at C-2 in place of C-4): almost completely lost

manadoperoxide I
IC50 against T. b. rhodesiense ([1]; in vitro): 0.062 µg/mL | IC50 [1, 5]: 170 nM

COc1cc([C@@H]2c3cc4c(cc3[C@H](O)[C@H]3COC(=O)[C@H]23)OCO4)cc(OC)c1OC [Podophyllotoxin, reference compound]
IC50 at 72 h [2, 8]: 0.004 µg/mL | IC50 at 72 h [2, 9]: 9.6 nM

CC/C=C(C)/C=C/CCCC1(O)C[C@H](C)[C@H](CC(=O)OC)O1 (stereo partly drawn) [Compound 6]
IC50 at 72 h ([2]; rat): 82.3 µg/mL and 252 µM | IC50 [3, 6]: > 20 µg/mL | antitrypanosomal activity (in words) [4]: inactive
